Measured values from patent publication US5710274A, “N-aminoalkyldibenzofurancarboxamides; new dopamine receptor subtype specific ligands” (Neurogen Corporation, priority 1996, dated 1998).
Structures can show the parent of a compound that is named as a salt.

Columns and labels:
[1] = target: T1, D2 receptors (Chlorocebus aethiops, UniProt P52702); test: D2 receptor binding, displacement of 3H-YM 09151-2; set-up: species or system African Green monkey; conditions: recombinant receptors in COS cell pellets; 0.5 nM 3H-YM 09151-2; 48° C; pH 7.4
T1 construct: expressed in transfected cells; host or cells: COS cells
T1 sequence (P52702 whole entry): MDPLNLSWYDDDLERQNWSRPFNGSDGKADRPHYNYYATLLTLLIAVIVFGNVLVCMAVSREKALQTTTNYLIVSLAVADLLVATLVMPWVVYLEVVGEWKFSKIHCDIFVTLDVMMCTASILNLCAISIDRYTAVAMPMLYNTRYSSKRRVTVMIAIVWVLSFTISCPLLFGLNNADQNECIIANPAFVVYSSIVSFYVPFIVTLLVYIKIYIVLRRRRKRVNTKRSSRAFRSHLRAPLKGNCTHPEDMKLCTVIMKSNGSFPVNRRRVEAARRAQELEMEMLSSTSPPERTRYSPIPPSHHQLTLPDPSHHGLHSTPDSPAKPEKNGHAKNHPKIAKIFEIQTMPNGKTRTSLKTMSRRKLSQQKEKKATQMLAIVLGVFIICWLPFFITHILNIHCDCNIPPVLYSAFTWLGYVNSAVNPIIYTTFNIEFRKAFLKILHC
Protocol: (§1) Pellets of COS cells containing recombinantly produced D2 or D3 receptors from African Green monkey were used for the assays. The sample is homogenized in 100 volumes (w/vol) of 0.05M Tris HCl buffer at 4° C. and pH 7.4. The sample is then centrifuged at 30,000×g and resuspended and rehomogenized. The sample is then centrifuged as described and the final tissue sample is frozen until use. The tissue is resuspended 1:20 (wt/vol) in 0.05M Tris HCl buffer containing 100 mM NaCl.
(§2) Incubations are carried out at 48° C. and contain 0.4 ml of tissue sample, 0.5 nM ^3 H-YM 09151-2 and the compound of interest in a total incubation of 1.0 ml. Nonspecific binding is defined as that binding found in the presence of […] spiperone; without further additions, nonspecific binding is less than 20% of total binding. The binding characteristics of representative compounds of the invention for D2 and D3 receptor subtypes are shown in Table 2 for rat striatal homogenates.

[2] = target: T2, D3 receptors (Chlorocebus aethiops, UniProt P52703); test: D3 receptor binding, displacement of 3H-YM 09151-2; set-up: species or system African Green monkey; conditions: recombinant receptors in COS cell pellets; 0.5 nM 3H-YM 09151-2; 48° C; pH 7.4
T2 construct: expressed in transfected cells; host or cells: COS cells
T2 sequence (P52703 whole entry): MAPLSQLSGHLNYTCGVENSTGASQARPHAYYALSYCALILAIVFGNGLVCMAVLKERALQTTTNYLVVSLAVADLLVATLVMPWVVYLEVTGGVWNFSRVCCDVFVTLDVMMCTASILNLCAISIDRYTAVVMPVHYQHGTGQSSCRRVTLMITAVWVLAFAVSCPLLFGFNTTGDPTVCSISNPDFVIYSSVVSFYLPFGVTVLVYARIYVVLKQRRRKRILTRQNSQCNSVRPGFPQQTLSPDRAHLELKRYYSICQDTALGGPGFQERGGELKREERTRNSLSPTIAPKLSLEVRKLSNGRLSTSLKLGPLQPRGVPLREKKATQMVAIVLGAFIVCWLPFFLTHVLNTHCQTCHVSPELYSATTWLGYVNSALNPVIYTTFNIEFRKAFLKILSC
Protocol: as §1, §2

| Ki [1] [nM] | Ki [2] [nM] | Compound |
| --- | --- | --- |
| 201 | 1.3 | O=C(NCCCCN1CCN(c2cccc3ccccc23)CC1)c1ccc2oc3ccccc3c2c1 [Compound 2, N-(1-{4-[4-(1-Naphthyl)piperazin-1-yl]}butyl)-2-dibenzofurancarboxamide hydrochloride] |
| 157 | 1 | O=C(NCCCCN1CCN(c2cccc(Cl)c2Cl)CC1)c1ccc2oc3ccccc3c2c1 [Compound 1, N-(1-{4-[4-(2,3-Dichlorophenyl)piperazin-1-yl]}butyl)-2-dibenzofurancarboxamide hydrochloride] |
